In ChEMBL document CHEMBL4177730, “Rational modification of semaxanib and sunitinib for developing a tumor growth inhibitor targeting ATP binding site of tyrosine kinase” (2018):
The source made the active and inactive calls.

How the values were obtained:
Type in all cases: functional, cell-based
[1] = tested on: T47D; assay: Growth inhibition of human T47D cells at 10 uM after 48 hrs by sulforhodamine B assay
[2] = tested on: SK-MEL-5; assay: Growth inhibition of human SK-MEL-5 cells at 10 uM after 48 hrs by sulforhodamine B assay
[3] = tested on: Malme-3M; assay: Growth inhibition of human MALME-3M cells at 10 uM after 48 hrs by sulforhodamine B assay
[4] = tested on: SK-MEL-2; assay: Growth inhibition of human SK-MEL-2 cells at 10 uM after 48 hrs by sulforhodamine B assay
[5] = tested on: NCI-H226; assay: Growth inhibition of human NCI-H226 cells at 10 uM after 48 hrs by sulforhodamine B assay
[6] = tested on: SF-539; assay: Growth inhibition of human SF539 cells at 10 uM after 48 hrs by sulforhodamine B assay
[7] = tested on: BT-549; assay: Growth inhibition of human BT549 cells at 10 uM after 48 hrs by sulforhodamine B assay
[8] = tested on: SNB-75; assay: Growth inhibition of human SNB75 cells at 10 uM after 48 hrs by sulforhodamine B assay
[9] = tested on: HCT-116; assay: Growth inhibition of human HCT116 cells at 10 uM after 48 hrs by sulforhodamine B assay
[10] = tested on: IGROV-1; assay: Growth inhibition of human IGROV1 cells at 10 uM after 48 hrs by sulforhodamine B assay
[11] = tested on: SF-268; assay: Growth inhibition of human SF268 cells at 10 uM after 48 hrs by sulforhodamine B assay
[12] = tested on: CAKI-1; assay: Growth inhibition of human CAKI-1 cells at 10 uM after 48 hrs by sulforhodamine B assay
[13] = tested on: CCRF-CEM; assay: Growth inhibition of human CCRF-CEM cells at 10 uM after 48 hrs by sulforhodamine B assay
[14] = tested on: OVCAR-5; assay: Growth inhibition of human OVCAR5 cells at 10 uM after 48 hrs by sulforhodamine B assay
[15] = tested on: UACC-62; assay: Growth inhibition of human UACC62 cells at 10 uM after 48 hrs by sulforhodamine B assay
[16] = tested on: NCI-H23; assay: Growth inhibition of human NCI-H23 cells at 10 uM after 48 hrs by sulforhodamine B assay
[17] = tested on: OVCAR-3; assay: Growth inhibition of human OVCAR3 cells at 10 uM after 48 hrs by sulforhodamine B assay
[18] = tested on: PC-3; assay: Growth inhibition of human PC3 cells at 10 uM after 48 hrs by sulforhodamine B assay
[19] = tested on: SF-295; assay: Growth inhibition of human SF295 cells at 10 uM after 48 hrs by sulforhodamine B assay
[20] = tested on: HT-29; assay: Growth inhibition of human HT-29 cells at 10 uM after 48 hrs by sulforhodamine B assay
[21] = tested on: SK-OV-3; assay: Growth inhibition of human SKOV3 cells at 10 uM after 48 hrs by sulforhodamine B assay
[22] = tested on: NCI/ADR-RES; assay: Growth inhibition of human NCI-ADR-RES cells at 10 uM after 48 hrs by sulforhodamine B assay
[23] = tested on: ACHN; assay: Growth inhibition of human ACHN cells at 10 uM after 48 hrs by sulforhodamine B assay
[24] = tested on: UO-31; assay: Growth inhibition of human UO31 cells at 10 uM after 48 hrs by sulforhodamine B assay
[25] = tested on: A498; assay: Growth inhibition of human A498 cells at 10 uM after 48 hrs by sulforhodamine B assay
[26] = tested on: HOP-62; assay: Growth inhibition of human HOP62 cells at 10 uM after 48 hrs by sulforhodamine B assay
[27] = tested on: Hs-578T; assay: Growth inhibition of human Hs 578T cells at 10 uM after 48 hrs by sulforhodamine B assay
[28] = tested on: HOP-92; assay: Growth inhibition of human HOP92 cells at 10 uM after 48 hrs by sulforhodamine B assay
[29] = tested on: HCT-15; assay: Growth inhibition of human HCT15 cells at 10 uM after 48 hrs by sulforhodamine B assay
[30] = tested on: K562; assay: Growth inhibition of human K562 cells at 10 uM after 48 hrs by sulforhodamine B assay
[31] = tested on: NCI-H460; assay: Growth inhibition of human NCI-H460 cells at 10 uM after 48 hrs by sulforhodamine B assay
[32] = tested on: DU-145; assay: Growth inhibition of human DU145 cells at 10 uM after 48 hrs by sulforhodamine B assay
[33] = tested on: SR; assay: Growth inhibition of human SR cells at 10 uM after 48 hrs by sulforhodamine B assay
[34] = tested on: M14; assay: Growth inhibition of human M14 cells at 10 uM after 48 hrs by sulforhodamine B assay
[35] = tested on: U-251; assay: Growth inhibition of human U251 cells at 10 uM after 48 hrs by sulforhodamine B assay
[36] = tested on: OVCAR-4; assay: Growth inhibition of human OVCAR4 cells at 10 uM after 48 hrs by sulforhodamine B assay
[37] = tested on: EKVX; assay: Growth inhibition of human EKVX cells at 10 uM after 48 hrs by sulforhodamine B assay
[38] = tested on: COLO 205; assay: Growth inhibition of human COLO205 cells at 10 uM after 48 hrs by sulforhodamine B assay
[39] = tested on: KM12; assay: Growth inhibition of human KM12 cells at 10 uM after 48 hrs by sulforhodamine B assay
[40] = tested on: SN12C; assay: Growth inhibition of human SN12C cells at 10 uM after 48 hrs by sulforhodamine B assay
[41] = tested on: SK-MEL-28; assay: Growth inhibition of human SK-MEL-28 cells at 10 uM after 48 hrs by sulforhodamine B assay
[42] = tested on: MDA-MB-468; assay: Growth inhibition of human MDA-MB-468 cells at 10 uM after 48 hrs by sulforhodamine B assay
[43] = tested on: MCF7; assay: Growth inhibition of human MCF7 cells at 10 uM after 48 hrs by sulforhodamine B assay
[44] = tested on: LOX IMVI; assay: Growth inhibition of human LOXIMVI cells at 10 uM after 48 hrs by sulforhodamine B assay
[45] = tested on: SW-620; assay: Growth inhibition of human SW620 cells at 10 uM after 48 hrs by sulforhodamine B assay
[46] = tested on: RXF 393; assay: Growth inhibition of human RXF393 cells at 10 uM after 48 hrs by sulforhodamine B assay
[47] = tested on: HCC 2998; assay: Growth inhibition of human HCC2998 cells at 10 uM after 48 hrs by sulforhodamine B assay
[48] = tested on: RPMI-8226; assay: Growth inhibition of human RPMI8226 cells at 10 uM after 48 hrs by sulforhodamine B assay
[49] = tested on: OVCAR-8; assay: Growth inhibition of human OVCAR8 cells at 10 uM after 48 hrs by sulforhodamine B assay
[50] = tested on: TK-10; assay: Growth inhibition of human TK10 cells at 10 uM after 48 hrs by sulforhodamine B assay
[51] = tested on: SNB-19; assay: Growth inhibition of human SNB19 cells at 10 uM after 48 hrs by sulforhodamine B assay
[52] = tested on: MOLT-4; assay: Growth inhibition of human MOLT4 cells at 10 uM after 48 hrs by sulforhodamine B assay
[53] = tested on: A549; assay: Growth inhibition of human A549/ATCC cells at 10 uM after 48 hrs by sulforhodamine B assay
[54] = tested on: NCI-H322M; assay: Growth inhibition of human NCI-H322M cells at 10 uM after 48 hrs by sulforhodamine B assay
[55] = tested on: MDA-MB-231; assay: Growth inhibition of human MDA-MB-231 cells at 10 uM after 48 hrs by sulforhodamine B assay
[56] = tested on: NCI-H522; assay: Growth inhibition of human NCI-H522 cells at 10 uM after 48 hrs by sulforhodamine B assay
[57] = tested on: HL-60(TB); assay: Growth inhibition of human HL-60(TB) cells at 10 uM after 48 hrs by sulforhodamine B assay
[58] = tested on: 786-0; assay: Growth inhibition of human 786-0 cells at 10 uM after 48 hrs by sulforhodamine B assay
[59] = tested on: MDA-MB-435; assay: Growth inhibition of human MDA-MB-435 cells at 10 uM after 48 hrs by sulforhodamine B assay

Measured: growth inhibition (GI)

O=C1/C(=C\c2cccn2Cc2ccc(Cl)cc2)c2ccccc2N1c1c(Cl)cccc1Cl
inactive: all assays above
